The source of these data is patent US20250032623A1, “HETEROBIFUNCTIONAL COMPOUNDS AND THEIR USE IN TREATING DISEASE” (HALDA THERAPEUTICS OPCO, INC., priority 2021, published 2025).

The subject of test [1] is HEK293 cells. The test can be described thus: Cellular growth inhibition assay (CellTiter-Glo), HEK293 cells. It counts as cell-based. The conditions noted are these: three days compound treatment, CellTiter-Glo 2.0, read-out: CTG HEK293 GI50. The method, boiled down: (§1)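 GI50 derived by four-parameter regression of luminescence (CellTiter-Glo 2.0) at Day 0 and Day 3, normalized to DMSO wells. Cells (HeLa, HEK293; 500/well, DMEM plus 10% FBS) were dosed with compound dilutions 24 h post-seeding and exposed for three days at 37 °C.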
(Cellular ATP, detected with luciferase, serves as a proxy for viable cell number.)

Test [2] concerns the target T1, KRAS G12C (Homo sapiens, UniProt P01116, G12C).
T1 construct: Kras (aa 2-169), GST; purchased Reaction Biology Corporation (RBC)
The test can be described thus: KRAS G12C nucleotide exchange assay (SOS1 mediated, HTRF). It counts as biochemical. The following applies: 1 hr pre-incubation at RT, read-out: IC50 (inhibition of KRas G12C). The method, boiled down: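 HTRF nucleotide exchange using KRAS G12C mixed with anti-GST Tb antibody and pre-incubated with compound for 1 h at RT. Exchange was started with SOS1 plus labelled GTP. Compounds ran as 10-point, 3-fold dilutions from 10 μM, with no-SOS1 or top concentration as blank and IC50 from a variable-slope sigmoidal fit.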
A general note: Time-resolved FRET reads energy transfer from a long-lived donor to a nearby acceptor.

The test system of test [3] is HeLa cells. Nature of the test: Cellular growth inhibition assay (CellTiter-Glo), HeLa cells. The following applies: three days compound treatment, CellTiter-Glo 2.0, read-out: CTG HELA GI50. The class given is cell-based. The method, boiled down: as §1

Where two headings read alike, the source gives them in different places.

T1 sequence (P01116 2-169 isoform P01116-2 G12C): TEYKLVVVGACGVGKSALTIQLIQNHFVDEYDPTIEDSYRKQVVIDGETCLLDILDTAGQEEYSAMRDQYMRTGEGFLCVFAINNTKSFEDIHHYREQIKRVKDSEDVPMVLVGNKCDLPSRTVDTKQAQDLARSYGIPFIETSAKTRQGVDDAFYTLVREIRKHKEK

Broadly, the GI50 is the concentration giving 50% growth inhibition. The IC50 is the concentration that gives 50% inhibition. As for `CCc1cnn2c(NCc3ccc(OCCOCCOCCOCCOCCOCCOCCOCCOCCN(C)C/C=C/C(=O)N4CCN(c5nc(OC[C@@H]6CCCN6C)nc6c5CCN(c5cccc7cccc(Cl)c57)C6)C[C@@H]4CC#N)nc3)cc(N3CCCC[C@H]3CCO)nc12` [Compound I-93, 2-((S)-4-(7-(8-chloronaphthalen-1-yl)-2-(((S)-1-methylpyrrolidin-2-yl)methoxy)-5,6,7,8-tetrahydropyrido[3,4d]pyrimidin4-yl)-1-((E)-1-((5-(((3-ethyl-5-((S)-2-(2-hydroxyethyl)piperidin-1-yl)pyrazolo[1,5-a]pyrimidin-7-yl)amino)methyl)pyridin-2-yl)oxy)-27-methyl-3,6,9,12,15,18,21,24-octaoxa-27-azahentriacont-29-en-31-oyl)piperazin-2-yl)acetonitrile], the GI50 in test [1] (Homo sapiens, 72 h) was 1.5 to 5 µM; in test [3] (Homo sapiens, 72 h) it was < 0.5 µM. Moreover, in test [2], the IC50 was < 0.1 µM.

In the case of `CCc1cnn2c(NCc3ccc(OCCOCCOCCOCCOCCOCCOCCN(C)C/C=C/C(=O)N4CCN(c5nc(OC[C@@H]6CCCN6C)nc6c5CCN(c5cccc7cccc(Cl)c57)C6)C[C@@H]4CC#N)nc3)cc(N3CCCC[C@H]3CCO)nc12` [Compound I-94, 2-((S)-4-(7-(8-chloronaphthalen-1-yl)-2-(((S)-1-methylpyrrolidin-2-yl)methoxy) -5,6,7,8-tetrahydropyrido[3,4-d]pyrimidin-4-yl)-1-((E)-1-((5-(((3-ethyl-5-((S)-2-(2-hydroxyethyl)piperidin-1-yl)pyrazolo[1,5-a]pyrimidin-7-yl)amino)methyl)pyridin-2-yl)oxy)-21-methyl-3,6,9,12,15,18-hexaoxa-21-azapentacos-23-en-25-oyl)piperazin-2-yl)acetonitrile], the GI50 in test [1] (Homo sapiens, 72 h) lay in the range of 1.5 to 5 µM; in test [3] (Homo sapiens, 72 h) it was 0.5 to 1.5 µM. Besides, in test [2], the IC50 was < 0.1 µM.

`CCc1cnn2c(NCc3ccc(OCCOCCOCCOCCOCCOCCOCCOC/C=C/C(=O)N4CCN(c5nc(OC[C@@H]6CCCN6C)nc6c5CCN(c5cccc7cccc(Cl)c57)C6)C[C@@H]4CC#N)nc3)cc(N3CCCC[C@H]3CCO)nc12` [Compound I-95]: the GI50 was 1.5 to 5 µM in test [1] (Homo sapiens, 72 h) and > 5 µM in test [3] (Homo sapiens, 72 h). Further, the IC50 in test [2] is 1 to 5 µM.

For `C=C(F)C(=O)N1CCN(c2nc(OC[C@@H]3CCCN3CCCOCCOCCOCCOCCN(C)C(=O)N3N=C(c4cc(F)ccc4F)S[C@@]3(CCCN)c3ccccc3)nc3c2CCN(c2cccc4cccc(Cl)c24)C3)C[C@@H]1CC#N` [Compound I-98, 2-(3-aminopropyl)-N-[2-[2-[2-[2-[3-[(2S)-2-[[7-(8-chloro-1-naphthyl)-4-[(3S)-3-(cyanomethyl)-4-(2-fluoroprop-2-enoyl)piperazin-1-yl]-6,8-dihydro-5H-pyrido[3,4-d]pyrimidin-2-yl]oxymethyl]pyrrolidin-1-yl]propoxy]ethoxy]ethoxy]ethoxy]ethyl]-5-(2,5-difluorophenyl)-N-methyl-2-phenyl-1,3,4-thiadiazole-3-carboxamide], the GI50 was 1.5 to 5 µM in test [1] (Homo sapiens, 72 h) and 0.5 to 1.5 µM in test [3] (Homo sapiens, 72 h). In addition, the IC50 in test [2] is < 0.1 µM.

For the compound `C=C(F)C(=O)N1CCN(c2nc(OC[C@@H]3CCCN3CCCOCCOCCN(C)C(=O)N3N=C(c4cc(F)ccc4F)SC3(CCCN)c3ccccc3)nc3c2CCN(c2cccc4cccc(Cl)c24)C3)C[C@@H]1CC#N` (stereo partly drawn) [Compound I-99, 2-(3-aminopropyl)-N-[2-[2-[3-[(2S)-2-[[7-(8-chloro-1-naphthyl)-4-[(3S)-3-(cyanomethyl)-4-(2-fluoroprop-2-enoyl)piperazin-1-yl]-6,8-dihydro-5H-pyrido[3,4-d]pyrimidin-2-yl]oxymethyl]pyrrolidin-1-yl]propoxy]ethoxy]ethyl]-5-(2,5-difluorophenyl)-N-methyl-2-phenyl-1,3,4-thiadiazole-3-carboxamide], the GI50 lay in the range of 1.5 to 5 µM in test [1] (Homo sapiens, 72 h) and 0.5 to 1.5 µM in test [3] (Homo sapiens, 72 h). Further, the IC50 in test [2] was < 0.1 µM.

With `C=C(F)C(=O)N1CCN(c2nc(OC[C@@H]3CCCN3CCCOCCOCCOCCOCCOCCOCCN(C)C(=O)N3N=C(c4cc(F)ccc4F)S[C@@]3(CCCN)c3ccccc3)nc3c2CCN(c2cccc4cccc(Cl)c24)C3)C[C@@H]1CC#N` [Compound I-100, (2S)-2-(3-aminopropyl)-N-[2-[22[2-[2-[2-[2-[3-[(2S)-2-[[7-(8-chloro-1-naphthyl)-4-[(3S)-3-(cyanomethyl)-4-(2-fluoroprop-2-enoyl)piperazin-1-yl]-6,8-dihydro-5H-pyrido[3,4-d]pyrimidin-2-yl]oxymethyl]pyrrolidin-1-yl]propoxy]ethoxy]ethoxy]ethoxy]ethoxy]ethoxy]ethyl]-5-(2,5-difluorophenyl)-N-methyl-2-phenyl-1,3,4-thiadiazole-3-carboxamide], the 50% growth inhibitory concentration (GI50) is > 5 µM in test [1] (Homo sapiens, 72 h) and 1.5 to 5 µM in test [3] (Homo sapiens, 72 h). Besides, the IC50 in test [2] was < 0.1 µM.

In the case of `C=C(F)C(=O)N1CCN(c2nc(OC[C@@H]3CCCN3CCCOCCOCCOCCOCCOCCOCCOCCOCCN(C)C(=O)N3N=C(c4cc(F)ccc4F)S[C@@]3(CCCN)c3ccccc3)nc3c2CCN(c2cccc4cccc(Cl)c24)C3)C[C@@H]1CC#N` [Compound I-101], the GI50 in test [1] and in test [3] was 1.5 to 5 µM throughout. The IC50 in test [2] was < 0.1 µM.

Regarding `C=C(F)C(=O)N1CCN(c2nc(OC[C@@H]3CCCN3CCCN3CCN(CCNC(=O)c4ccc(Nc5ncc6c(n5)N(C5CCCC5)[C@H](CC)C(=O)N6C)c(OC)c4)CC3)nc3c2CCN(c2cccc4cccc(Cl)c24)C3)C[C@@H]1CC#N` [Compound I-106, N-[2-[4-[3-[(2S)-2-[[7-(8-chloro-1-naphthyl)-4-[(3S)-3-(cyanomethyl)-4-(2-fluoroprop-2-enoyl)piperazin-1-yl]-6,8-dihydro-5H-pyrido[3,4-d]pyrimidin-2-yl]oxymethyl]pyrrolidin-1-yl]propyl]piperazin-1-yl]ethyl]-4-[[(7R)-8-cyclopentyl-7-ethyl-5-methyl-6-oxo-7H-pteridin-2-yl]amino]-3-methoxy-benzamide], the GI50 in test [1] (Homo sapiens, 72 h) is 0.5 to 1.5 µM; in test [3] (Homo sapiens, 72 h), 0.5 to 1.5 µM. In test [2], the IC50 was < 0.1 µM.

With `CC[C@@H]1C(=O)N(C)c2cnc(Nc3ccc(C(=O)NCCOCCOCCN(C)C/C=C/C(=O)N4CCN(c5nc(OC[C@@H]6CCCN6C)nc6c5CCN(c5cccc7cccc(Cl)c57)C6)C[C@@H]4CC#N)cc3OC)nc2N1C1CCCC1` [Compound I-107, N-[2-[2-[2-[[(E)-4-[(2S)-4-[7-(8-chloro-1-naphthyl)-2-[[(2S)-1-methylpyrrolidin-2-yl]methoxy]-6,8-dihydro-SH-pyrido[3,4-d]pyrimidin-4-yl]-2-(cyanomethyl)piperazin-1-yl]-4-oxo-but-2-enyl]-methyl-amino]ethoxy]ethoxy]ethyl]-4-[[(7R)-8-cyclopentyl-7-ethyl-5-methyl-6-oxo-7H-pteridin-2-yl]amino]-3-methoxy-benzamide], the GI50 was < 0.5 µM in test [1] (Homo sapiens, 72 h) and < 0.5 µM in test [3] (Homo sapiens, 72 h). Moreover, the IC50 in test [2] was < 0.1 µM.

Consider `CC[C@@H]1C(=O)N(C)c2cnc(Nc3ccc(C(=O)NCCOCCOCCOCCOCCOCCOCCN(C)C/C=C/C(=O)N4CCN(c5nc(OC[C@@H]6CCCN6C)nc6c5CCN(c5cccc7cccc(Cl)c57)C6)C[C@@H]4CC#N)cc3OC)nc2N1C1CCCC1` [Compound I-109, N-[2-[2-[2-[2-[2-[2-[2-[[(E)-4-1[(2S)-4-1[7-(8-chloro-1-naphthyl)-2-[[(2S)-1-methylpyrrolidin-2-yl]methoxy]-6,8-dihydro-5Hpyrido1[3,4-d]pyrimidin-4-yl]-2-(cyanomethyl)piperazin-1-yl]-4-oxo-but-2-enyl]-methylamino]ethoxy]ethoxy]ethoxy]ethoxy]ethoxy]ethoxy]ethyl]-4-[[(7R)-8-cyclopentyl-7-ethyl-5-methyl-6-oxo-7H-pteridin-2-yl]amino]-3-methoxy-benzamide], for which the GI50 lay within 1.5 to 5 µM in test [1] (Homo sapiens, 72 h) and 0.5 to 1.5 µM in test [3] (Homo sapiens, 72 h). Moreover, in test [2], the IC50 was < 0.1 µM.

As to `CC[C@@H]1C(=O)N(C)c2cnc(Nc3ccc(C(=O)NCCOCCOC4CCN(C/C=C/C(=O)N5CCN(c6nc(OC[C@@H]7CCCN7C)nc7c6CCN(c6cccc8cccc(Cl)c68)C7)C[C@@H]5CC#N)CC4)cc3OC)nc2N1C1CCCC1` [Compound I-110, N-[2-[2-[[1-[(E)-4-[(2S)-4-[7-(8-chloro-1-naphthyl)-2-[[(2S)-1-methylpyrrolidin-2-yl]methoxy]-6,8-dihydro-5H-pyrido[3,4-d]pyrimidin-4-yl]-2-(cyanomethyl)piperazin-1-yl]-4-oxo-but-2-enyl]-4-piperidyl]oxy]ethoxy]ethyl]-4-[[(7R)-8-cyclopentyl-7-ethyl-5-methyl-6-oxo-7H-pteridin-2-yl]amino]-3-methoxy-benzamide], the GI50 in test [1] (Homo sapiens, 72 h) was 0.5 to 1.5 µM; in test [3] (Homo sapiens, 72 h), 0.5 to 1.5 µM. Further, the 50% inhibitory concentration (IC50) in test [2] was < 0.1 µM.
